Test results: patent US10689414B2 (Agios Pharmaceuticals, Inc., priority 2013, dated 2020)

Tested on: U87MG cells
Assay: Cellular assay, inhibition of 2-HG production in U87MG cells
Format: cell-based
Details: Homo sapiens, U-87 MG, 48 h
Experimental: Cells (HT1080 or U87MG) are grown in T125 flasks in DMEM containing 10% FBS, 1× penicillin/streptomycin and 500 ug/mL G418 (present in U87MG cells only). They are harvested by trypsin and seeded into 96 well white bottom plates at a density of 5000 cell/well in 100 ul/well in DMEM with 10% FBS. […] Cells are incubated overnight at 37° C. in 5% CO2. The next day test compounds are made up at 2× the final concentration and 100 ul are added to each cell well. The final concentration of DMSO is 0.2% and the DMSO control wells are plated in row G. The plates are then placed in the incubator for 48 hours. […] The cell plate is placed back in the incubator for another 24 hours. At 72 hours post compound addition, 10 mL/plate of Promega Cell Titer Glo reagent is thawed and mixed. The cell plate is removed from the incubator and allowed to equilibrate to room temperature. Then 100 ul of Promega Cell Titer Glo reagent is added to each well of media. The cell plate is then placed on an orbital shaker for 10 minutes and then allowed to sit at room temperature for 20 minutes. The plate is then read for luminescence with an integration time of 500 ms.

N#Cc1ccnc(N2C(=O)[C@@H](O)C[C@H]2C(=O)N(c2cccc(F)c2)[C@H](C(=O)NC2CCC(F)(F)CC2)c2ccccc2Cl)c1 [Compound 172, (2S,4S)—N—((S)-1-(2-Chlorophenyl)-2-((4,4-difluorocyclohexyl)amino)-2-oxoethyl)-1-(4-cyano-pyridin-2-yl)-N-(3-fluorophenyl)-4-hydroxy-5-oxopyrrolidine-2-carboxamide]
IC50: < 100 nM

N#Cc1ccnc(N2C(=O)CC[C@H]2C(=O)N(c2cccc(OC(F)F)c2)[C@H](C(=O)NC2CC(F)(F)C2)c2ccccc2Cl)n1 [Compound 194, (S)—N—((S)-1-(2-Chlorophenyl)-2-((3,3-difluorocyclobutyl)amino)-2-oxoethyl)-1-(4-cyanopyrimidin-2-yl)-N-(3-(difluoromethoxy)phenyl)-5-oxopyrrolidine-2-carboxamide]
IC50: < 100 nM

N#Cc1ccnc(N2C(=O)CC[C@H]2C(=O)N(c2cc(F)cc(C3CC3)c2)[C@H](C(=O)NC2CCC(F)(F)CC2)c2ccccc2Cl)c1 [Compound 202, (S)—N—((S)-1-(2-Chlorophenyl)-2-((4,4-difluorocyclohexyl)amino)-2-oxoethyl)-1-(4-cyanopyridin-2-yl)-N-(3-cyclopropyl-5-fluorophenyl)-5-oxopyrrolidine-2-carboxamide]
IC50: < 100 nM

N#Cc1ccnc(N2C(=O)[C@H](O)C[C@H]2C(=O)N(c2cc(F)cc(F)c2)[C@H](C(=O)NC2CC(F)(F)C2)c2ccccc2Cl)n1 [Compound 117, (2S,4R)—N—((S)-1-(2-Chlorophenyl)-2-((3,3-difluorocyclobutyl)amino)-2-oxoethyl)-1-(4-cyanopyrimidin-2-yl)-N-(3,5-difluorophenyl)-4-hydroxy-5-oxopyrrolidine-2-carboxamide]
IC50: < 100 nM

[2H]c1c([2H])c([2H])c([C@@H](C(=O)NC2CC(F)(F)C2)N(C(=O)[C@@H]2CCC(=O)N2c2cc(C#N)ccn2)c2cc(F)cc(F)c2)c(Cl)c1[2H] [Compound 163]
IC50: < 100 nM

CN(C)S(=O)(=O)c1cccc(N(C(=O)[C@@H]2CCC(=O)N2c2cc(C#N)ccn2)[C@H](C(=O)NC2CC(F)(F)C2)c2ccccc2Cl)c1 [Compound 156, (S)—N—((S)-1-(2-Chlorophenyl)-2-(3,3-difluorocyclobutylamino)-2-oxoethyl)-1-(4-cyanopyri-din-2-yl)-N-(3-(N,N-dimethylsulfamoyl)phenyl)-5-oxopyrrolidine-2-carboxamide]
IC50: < 100 nM

O=C(NC1CCC(F)(F)CC1)[C@H](c1ccccc1Cl)N(C(=O)[C@@H]1COC(=O)N1c1ncccn1)c1cccc(F)c1 [Compound 76, (S)—N—((S)-1-(2-Chlorophenyl)-2-((4,4-difluorocyclohexyl)amino)-2-oxoethyl)-N-(3-fluoro-phenyl)-2-oxo-3-(pyrimidin-2-yl)oxazolidine-4-carboxamide]
IC50: < 100 nM

COc1cccc(N(C(=O)[C@@H]2CCC(=O)N2c2nccc(C#N)n2)[C@H](C(=O)NC2CC(F)(F)C2)c2ccccc2Cl)c1 [Compound 164, (S)—N—((S)-1-(2-Chlorophenyl)-2-(3,3-difluorocyclobutyl-amino)-2-oxoethyl)-1-(4-cyanopyrimidin-2-yl)-N-(3-methoxyphenyl)-5-oxopyrrolidine-2-carboxamide]
IC50: < 100 nM

N#Cc1ccnc(N2C(=O)CC[C@H]2C(=O)N(c2cncc(F)c2)[C@H](C(=O)NC2CCC(F)(F)CC2)c2ccccc2Cl)c1 [Compound 193, (S)—N—((S)-1-(2-Chlorophenyl)-2-(4,4-difluorocyclohexylamino)-2-oxoethyl)-1-(4-cyanopyridin-2-yl)-N-(5-fluoropyridin-3-yl)-5-oxopyrrolidine-2-carboxamide]
IC50: < 100 nM

N#Cc1ccnc(N2C(=O)CC[C@H]2C(=O)N(c2cc(F)cc(S(N)(=O)=O)c2)[C@H](C(=O)NC2CC(F)(F)C2)c2ccccc2Cl)c1 [Compound 158, (2S)—N-(1-(2-chlorophenyl)-2-(3,3-difluorocyclobutylamino)-2-oxo-ethyl)-1-(4-cyanopyridin-2-yl)-N-(3-fluoro-5-sulfamoylphenyl)-5-oxopyrrolidine-2-carboxamide]
IC50: < 100 nM

CC(C)(C)OC(=O)N1CC(=O)N(c2nccc(C#N)n2)[C@H](C(=O)N(c2cc(F)cc(F)c2)[C@H](C(=O)NC2CC(F)(F)C2)c2ccccc2Cl)C1 [Compound 98, (3S)-tert-butyl 3-((1-(2-chlorophenyl)-2-((3,3-difluorocyclobutyl)amino)-2-oxoethyl)(3,5-difluorophenyl)carbamoyl)-4-(4-cyanopyrimidin-2-yl)-5-oxopiperazine-1-carboxylate]
IC50: < 100 nM

N#Cc1cc(F)cc(N(C(=O)[C@@H]2CCC(=O)N2c2cc(C#N)ccn2)[C@H](C(=O)NC2CC(F)(F)C2)c2ccccc2)c1 [Compound 211, (S)—N-(3-Cyano-5-fluorophenyl)-1-(4-cyanopyridin-2-yl)-N—((S)-2-(3,3-difluorocyclobutyl-amino)-2-oxo-1-phenylethyl)-5-oxopyrrolidine-2-carboxamide]
IC50: < 100 nM

N#Cc1ccnc(N2C(=O)[C@H](O)C[C@H]2C(=O)N(c2cc(F)cc(F)c2)[C@H](C(=O)NC2CCC(F)(F)CC2)c2ccccc2Cl)c1 [Compound 125, (2S,4R)—N—((S)-1-(2-Chlorophenyl)-2-(4,4-difluorocyclohexylamino)-2-oxoethyl)-1-(4-cyanopyridin-2-yl)-N-(3,5-difluorophenyl)-4-hydroxy-5-oxopyrrolidine-2-carboxamide]
IC50: < 100 nM

N#Cc1ccnc(N2C(=O)[C@@H](O)C[C@H]2C(=O)N(c2cccc(F)c2)[C@H](C(=O)NC2CC(F)(F)C2)c2ccccc2Cl)n1 [Compound 119, (2S,4S)—N—((S)-1-(2-Chlorophenyl)-2-(3,3-difluorocyclobutylamino)-2-oxoethyl)-1-(4-cyanopyrimidin-2-yl)-N-(3-fluorophenyl)-4-hydroxy-5-oxopyrrolidine-2-carboxamide]
IC50: 100 to 500 nM

N#Cc1ccnc(N2C(=O)CC[C@H]2C(=O)N(c2cccc(C3CC3)c2)[C@H](C(=O)NC2CC(F)(F)C2)c2ccccc2Cl)n1 [Compound 182, (S)—N—((S)-1-(2-Chlorophenyl)-2-((3,3-difluorocyclobutyl)amino)-2-oxoethyl)-1-(4-cyanopyri-midin-2-yl)-N-(3-cyclopropylphenyl)-5-oxopyrrolidine-2-carboxamide]
IC50: < 100 nM

C[C@]1(O)C[C@@H](C(=O)N(c2cccc(F)c2)[C@H](C(=O)NC2CC(F)(F)C2)c2ccccc2Cl)N(c2cc(C#N)ccn2)C1=O (stereo in doubt) [Compound 183, (2S)—N—((R)-1-(2-chlorophenyl)-2-(3,3-difluorocyclobutylamino)-2-oxoethyl)-1-(4-cyanopyridin-2-yl)-N-(3-fluorophenyl)-4-hydroxy-4-methyl-5-oxopyrrolidine-2-carboxamide]
IC50: < 100 nM

N#Cc1ccnc(N2C(=O)CC[C@H]2C(=O)N(c2cc(F)cc(F)c2)[C@H](C(=O)NC2CC(F)(F)C2)c2ccccc2Cl)c1 [Compound 71, (S)—N—((S)-1-(2-Chlorophenyl)-2-((3,3-difluorocyclobutyl)amino)-2-oxoethyl)-1-(4-cyanopyridin-2-yl)-N-(3,5-difluorophenyl)-5-oxopyrrolidine-2-carboxamide]
IC50: < 100 nM

O=C(NC1CC(F)(F)C1)[C@H](c1ccccc1Cl)N(C(=O)[C@@H]1CCC(=O)N1c1cscn1)c1cccc(F)c1 [Compound 43, (S)—N—((S)-1-(2-Chlorophenyl)-2-(3,3-difluorocyclobutylamino)-2-oxoethyl)-N-(3-fluorophenyl)-5-oxo-1-(thiazol-4-yl)pyrrolidine-2-carboxamide]
IC50: < 100 nM
